Measured values as given in ChEMBL document CHEMBL1130483, “The synthesis and evaluation of functionalized estratropones: Potent inhibitors of tubulin polymerization” (Bioorg Med Chem Lett, 1997).

Target: Tubulin (Bos taurus, UniProt Q6B856+Q862L2+Q862F3)
Experiment: Compound was evaluated for inhibition of tubulin polymerization using purified bovine brain tubulin, activity expressed as IC50
Assay type: functional, tissue-based

Structure (SMILES) | IC50 [µM]
C[C@]12CC[C@@H]3c4cc(O)c(=O)ccc4CC[C@H]3[C@@H]1CC[C@@H]2O | 14.9
C[C@]12CC[C@@H]3c4cc(N)c(=O)ccc4CC[C@H]3[C@@H]1CC[C@@H]2O | 16.5
C[C@]12CC[C@@H]3c4ccc(=N)c(O)cc4CC[C@H]3[C@@H]1CC[C@@H]2O | 14.4
C[C@]12CC[C@@H]3c4ccc(=O)c(O)cc4CC[C@H]3[C@@H]1CC[C@@H]2O | 22.8
C=Cc1ccc2c(cc1=O)CC[C@@H]1[C@@H]2CC[C@]2(C)[C@@H](O)CC[C@@H]12 | 14.2
CN(C)c1cc2c(ccc1=O)[C@H]1CC[C@]3(C)[C@@H](O)CC[C@H]3[C@@H]1CC2 | 46.8
CN(C)c1ccc2c(cc1=O)CC[C@@H]1[C@@H]2CC[C@]2(C)[C@@H](O)CC[C@@H]12 | 14.3
C/N=c1/cc2c(ccc1O)[C@H]1CC[C@]3(C)[C@@H](O)CC[C@H]3[C@@H]1CC2 | 19.4
C/N=c1\ccc2c(cc1O)CC[C@@H]1[C@@H]2CC[C@]2(C)[C@@H](O)CC[C@@H]12 | 60.7
C[C@]12CC[C@@H]3c4ccc([N+](=O)[O-])c(=O)cc4CC[C@H]3[C@@H]1CC[C@@H]2O | 52
C[C@]12CC[C@@H]3c4ccc(=O)c(N)cc4CC[C@H]3[C@@H]1CC[C@@H]2O | 9.2
